From US20190380978A1, “SOLID ORAL DOSAGE FORMS OF 2R,6R-HYDROXYNORKETAMINE OR DERIVATIVES THEREOF” (priority 2016, published 2019)

Tests used:
metabolite profiling = format: in vitro ADME; settings: hepatocyte data with metabolite profiling
Protocol: (§1) 2R,6R-hydroxynorketamine was investigated using an in vitro hepatocyte stability assay, during which 2R,6R-hydroxynorketamine was incubated with cryopreserved hepatocytes from 3 test species.

5-HT2A = 5-HT2A (Homo sapiens, UniProt P28223); test: binding to 5-HT2A receptor
Chain of 5-HT2A (P28223 whole entry): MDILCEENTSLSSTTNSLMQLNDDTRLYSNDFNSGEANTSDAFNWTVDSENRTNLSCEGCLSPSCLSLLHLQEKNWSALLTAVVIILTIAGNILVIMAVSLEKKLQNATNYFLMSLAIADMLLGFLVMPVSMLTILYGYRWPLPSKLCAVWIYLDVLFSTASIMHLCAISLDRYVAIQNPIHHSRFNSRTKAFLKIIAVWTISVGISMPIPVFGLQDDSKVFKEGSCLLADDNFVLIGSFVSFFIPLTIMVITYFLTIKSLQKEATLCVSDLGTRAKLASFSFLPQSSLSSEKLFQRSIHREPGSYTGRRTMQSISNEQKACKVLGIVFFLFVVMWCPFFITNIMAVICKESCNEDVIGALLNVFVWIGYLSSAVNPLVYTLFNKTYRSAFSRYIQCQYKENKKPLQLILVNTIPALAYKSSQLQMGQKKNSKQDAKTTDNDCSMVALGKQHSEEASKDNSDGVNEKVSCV
Excerpt: (§2) 2R,6R-hydroxynorketamine was investigated for binding to monoamine oxidases A and B, monoamine transporters, as well as a variety of 5HT receptors.

CYP2D6 = CYP2D6 (Homo sapiens, UniProt P10635); test: CYP inhibition assay, CYP2D6; format: in vitro ADME
Chain of CYP2D6 (P10635 whole entry): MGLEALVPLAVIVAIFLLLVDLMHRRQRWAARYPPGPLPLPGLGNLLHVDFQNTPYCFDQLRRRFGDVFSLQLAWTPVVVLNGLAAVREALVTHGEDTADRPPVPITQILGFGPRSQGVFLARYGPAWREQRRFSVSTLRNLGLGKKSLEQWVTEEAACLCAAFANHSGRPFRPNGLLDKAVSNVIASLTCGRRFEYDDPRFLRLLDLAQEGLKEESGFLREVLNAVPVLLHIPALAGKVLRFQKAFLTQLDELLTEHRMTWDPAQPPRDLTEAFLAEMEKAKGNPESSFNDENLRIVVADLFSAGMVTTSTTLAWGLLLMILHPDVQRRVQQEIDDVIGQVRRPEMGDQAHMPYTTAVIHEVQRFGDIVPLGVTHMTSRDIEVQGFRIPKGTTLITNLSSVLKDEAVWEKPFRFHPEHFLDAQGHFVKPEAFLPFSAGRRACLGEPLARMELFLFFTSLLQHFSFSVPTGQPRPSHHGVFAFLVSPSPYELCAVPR
Excerpt: (§3) Cytochrome P450s (CYPs) are a family of enzymes that play a primary role in the metabolism of a wide variety of drugs. 2R,6R-hydroxynorketamine was investigated for its potential to inhibit the action of 7 key CYP enzymes using an inhibition assay measuring reduction in the formation of metabolites compared to control.

CYP2C19 = CYP2C19 (Homo sapiens, UniProt P33261); test: CYP inhibition assay, CYP2C19; format: in vitro ADME
Chain of CYP2C19 (P33261 whole entry): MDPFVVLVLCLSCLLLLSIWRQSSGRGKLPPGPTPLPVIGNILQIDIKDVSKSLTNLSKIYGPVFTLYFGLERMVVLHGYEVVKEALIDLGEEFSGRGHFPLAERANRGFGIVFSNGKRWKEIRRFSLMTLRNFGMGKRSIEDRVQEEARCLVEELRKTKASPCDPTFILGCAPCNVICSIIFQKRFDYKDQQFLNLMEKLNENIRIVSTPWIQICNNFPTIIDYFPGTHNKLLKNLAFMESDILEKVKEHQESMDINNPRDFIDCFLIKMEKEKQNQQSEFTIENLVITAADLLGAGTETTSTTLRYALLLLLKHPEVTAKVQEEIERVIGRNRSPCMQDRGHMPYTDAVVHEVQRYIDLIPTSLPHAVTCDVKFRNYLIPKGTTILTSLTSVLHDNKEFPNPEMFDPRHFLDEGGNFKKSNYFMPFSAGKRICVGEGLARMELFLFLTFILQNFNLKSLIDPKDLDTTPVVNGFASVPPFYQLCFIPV
Excerpt: as §3

plasma binding proteins [1] = test: fraction unbound in 100% plasma, human; format: in vitro ADME
Excerpt: (§4) While the risk of DDIs due to displacement from plasma binding proteins (PPBs) is relatively low, it should be considered for drugs which display a high proportion PPB (fraction unbound (fu)<1%).
(§5) The fu was investigated for 2R,6R-hydroxynorketamine using a 100% plasma from 4 test species.

CYP2C8 = target: T1, CYP2C8 (Homo sapiens, UniProt P10632); test: CYP inhibition assay, CYP2C8; format: in vitro ADME
T1 sequence (P10632 1-490): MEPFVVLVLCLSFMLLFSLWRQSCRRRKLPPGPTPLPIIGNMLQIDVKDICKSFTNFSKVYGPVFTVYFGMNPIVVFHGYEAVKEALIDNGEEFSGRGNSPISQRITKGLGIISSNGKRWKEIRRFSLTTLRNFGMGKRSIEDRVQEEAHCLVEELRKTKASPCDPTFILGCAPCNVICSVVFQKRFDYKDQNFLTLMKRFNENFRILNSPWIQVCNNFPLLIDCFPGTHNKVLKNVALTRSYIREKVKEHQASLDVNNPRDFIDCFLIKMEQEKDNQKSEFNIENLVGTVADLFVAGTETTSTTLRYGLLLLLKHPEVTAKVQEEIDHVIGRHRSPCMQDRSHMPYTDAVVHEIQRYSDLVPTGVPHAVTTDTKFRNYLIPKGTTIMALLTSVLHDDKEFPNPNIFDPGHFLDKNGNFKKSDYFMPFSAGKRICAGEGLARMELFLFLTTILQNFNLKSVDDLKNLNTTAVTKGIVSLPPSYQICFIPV
Excerpt: as §3

plasma binding proteins [2] = test: fraction unbound in 100% plasma, dog; format: in vitro ADME
Excerpt: as §4, §5

[3] = DSC analysis of compatibility with diluents and capsule shells
5-HT1B = 5-HT1B (Homo sapiens, UniProt P28222); test: binding to 5-HT1B receptor
Chain of 5-HT1B (P28222 whole entry, species assumed): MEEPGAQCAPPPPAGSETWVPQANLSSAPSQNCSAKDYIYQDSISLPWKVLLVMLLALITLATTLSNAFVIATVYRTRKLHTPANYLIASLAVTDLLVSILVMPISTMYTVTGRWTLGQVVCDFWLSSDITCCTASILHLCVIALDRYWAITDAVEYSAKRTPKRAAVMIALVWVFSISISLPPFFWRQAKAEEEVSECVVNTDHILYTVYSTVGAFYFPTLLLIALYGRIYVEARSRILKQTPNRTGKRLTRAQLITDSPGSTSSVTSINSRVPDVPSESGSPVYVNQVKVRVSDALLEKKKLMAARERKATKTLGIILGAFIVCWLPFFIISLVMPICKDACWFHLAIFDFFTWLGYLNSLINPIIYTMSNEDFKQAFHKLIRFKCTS
Excerpt: as §2

CYP2C9 = CYP2C9 (Homo sapiens, UniProt P11712); test: CYP inhibition assay, CYP2C9; format: in vitro ADME
Chain of CYP2C9 (P11712 whole entry): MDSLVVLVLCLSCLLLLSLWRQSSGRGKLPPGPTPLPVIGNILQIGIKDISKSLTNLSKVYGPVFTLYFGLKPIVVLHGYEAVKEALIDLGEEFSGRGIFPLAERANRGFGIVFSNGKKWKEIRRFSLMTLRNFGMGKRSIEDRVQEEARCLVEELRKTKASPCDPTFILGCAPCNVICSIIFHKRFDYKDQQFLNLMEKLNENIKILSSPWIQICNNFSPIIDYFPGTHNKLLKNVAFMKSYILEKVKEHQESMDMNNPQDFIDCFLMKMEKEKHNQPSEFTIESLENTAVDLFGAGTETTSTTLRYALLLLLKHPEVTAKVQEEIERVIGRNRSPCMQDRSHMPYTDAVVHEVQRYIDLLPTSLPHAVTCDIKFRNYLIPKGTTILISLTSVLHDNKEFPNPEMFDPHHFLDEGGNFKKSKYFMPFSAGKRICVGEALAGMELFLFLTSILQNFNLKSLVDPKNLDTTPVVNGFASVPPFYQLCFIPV
Excerpt: as §3

[4] = test system: cryopreserved hepatocytes; test: in vitro hepatocyte stability assay, human; format: in vitro ADME
Protocol: as §1

[5] = target: norepinephrine transporter (Homo sapiens, UniProt P23975); test: binding to norepinephrine transporter
Chain of norepinephrine transporter (P23975 whole entry, species assumed): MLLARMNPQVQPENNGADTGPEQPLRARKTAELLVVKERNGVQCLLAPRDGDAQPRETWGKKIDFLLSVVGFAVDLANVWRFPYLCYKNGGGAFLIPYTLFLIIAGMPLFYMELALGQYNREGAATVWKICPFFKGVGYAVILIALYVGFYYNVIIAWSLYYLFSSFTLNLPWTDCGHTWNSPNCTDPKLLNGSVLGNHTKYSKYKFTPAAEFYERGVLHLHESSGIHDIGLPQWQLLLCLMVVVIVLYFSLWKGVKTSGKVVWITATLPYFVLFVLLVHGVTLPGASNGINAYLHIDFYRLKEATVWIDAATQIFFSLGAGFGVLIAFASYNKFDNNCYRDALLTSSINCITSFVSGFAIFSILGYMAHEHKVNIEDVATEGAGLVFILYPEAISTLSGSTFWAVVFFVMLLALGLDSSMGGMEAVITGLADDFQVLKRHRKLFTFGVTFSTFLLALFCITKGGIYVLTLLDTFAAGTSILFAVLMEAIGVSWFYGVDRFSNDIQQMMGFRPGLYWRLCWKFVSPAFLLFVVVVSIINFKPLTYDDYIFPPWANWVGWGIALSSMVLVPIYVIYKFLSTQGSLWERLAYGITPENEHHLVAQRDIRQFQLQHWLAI
Excerpt: as §2

5-HT2B = 5-HT2B (Homo sapiens, UniProt P41595); test: binding to 5-HT2B receptor
Chain of 5-HT2B (P41595 whole entry, species assumed): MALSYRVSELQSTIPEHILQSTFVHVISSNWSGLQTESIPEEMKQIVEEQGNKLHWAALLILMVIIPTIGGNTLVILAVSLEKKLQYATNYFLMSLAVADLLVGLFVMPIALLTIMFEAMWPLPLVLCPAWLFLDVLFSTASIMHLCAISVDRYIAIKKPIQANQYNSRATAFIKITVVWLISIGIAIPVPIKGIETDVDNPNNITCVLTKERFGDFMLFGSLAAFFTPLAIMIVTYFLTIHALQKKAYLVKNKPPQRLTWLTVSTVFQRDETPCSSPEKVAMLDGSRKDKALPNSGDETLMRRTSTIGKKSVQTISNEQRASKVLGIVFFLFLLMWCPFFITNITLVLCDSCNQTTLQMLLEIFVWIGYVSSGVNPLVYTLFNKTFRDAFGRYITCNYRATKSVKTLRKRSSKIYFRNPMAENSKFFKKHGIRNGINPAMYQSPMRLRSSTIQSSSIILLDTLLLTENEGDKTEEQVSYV
Excerpt: as §2

[6] = in vitro hepatocyte stability assay, dog; format: in vitro ADME; settings: cryopreserved hepatocytes
Protocol: as §1

[7] = test system: α-amino-3-hydroxy-5-methyl-4-isoxazolepropionic acid receptor (AMPAR)-mediated currents; test: in vitro electrophysiological experiments (fEPSPs)
Protocol: The free (unbound) concentration of 2R,6R-hydroxynorketamine producing pharmacodynamics activity in the brain is estimated to be approximately 10 μM.

Compound: N[C@@]1(c2ccccc2Cl)CCC[C@@H](O)C1=O [2R,6R-hydroxynorketamine]
- phase I metabolism by CYP enzymes (metabolite profiling): does not undergo phase I metabolism
- route of metabolism and excretion (metabolite profiling): glucuronidated and excreted via the renal system
- % Inhibition of Control Specific Binding (5-HT2A): 0%
- % of Control Specific Binding (5-HT2A): 103.8%
- binding to 5HT2A receptor subtype (5-HT2A): does not bind
- inhibition at 0.4 µM (CYP2D6; 0.4 μM): 3.16%
- inhibition at 1 µM (CYP2D6; 1 μM): 6.65%
- inhibition at 4 µM (CYP2D6; 4 μM): 11.5%
- inhibition at 10 µM (CYP2D6; 10 μM): 9.41%
- inhibition at 40 µM (CYP2D6; 40 μM): 11.2%
- inhibition at 100 µM (CYP2D6; 100 μM): 5.73%
- inhibition of CYP2C19 (CYP2C19): did not inhibit
- inhibition at 0.4 µM (CYP2C19; human, 0.4 μM): -2.01%
- inhibition at 1 µM (CYP2C19; human, 1 μM): -1.66%
- inhibition at 4 µM (CYP2C19; human, 4 μM): 1.85%
- inhibition at 10 µM (CYP2C19; human, 10 μM): 6.69%
- inhibition at 40 µM (CYP2C19; human, 40 μM): 8.25%
- inhibition at 100 µM (CYP2C19; human, 100 μM): 16.1%
- plasma protein binding (PPB), words (plasma binding proteins [1]): low PPB
- inhibition of CYP2C8 (CYP2C8): did not inhibit
- inhibition at 0.4 µM (CYP2C8; human, 0.4 μM): 5.63%
- inhibition at 1 µM (CYP2C8; human, 1 μM): 4.91%
- inhibition at 4 µM (CYP2C8; human, 4 μM): 12.5%
- inhibition at 10 µM (CYP2C8; human, 10 μM): 8.33%
- inhibition at 40 µM (CYP2C8; human, 40 μM): 8.35%
- inhibition at 100 µM (CYP2C8; human, 100 μM): 2.08%
- plasma protein binding (PPB), words (plasma binding proteins [2]): low PPB
- compatibility with hydroxypropyl methylcellulose capsule shells [3]: compatibility
- compatibility with dicalcium phosphate ([3]; DSC): compatibility
- compatibility with microcrystalline cellulose ([3]; DSC): compatibility
- compatibility with lactose monohydrate ([3]; DSC, binary mix, 1:2 ratio of API:Excipient): incompatible
- % Inhibition of Control Specific Binding (5-HT1B): −2%
- % of Control Specific Binding (5-HT1B): 102.7%
- binding to 5HT1B receptor subtype (5-HT1B): does not bind
- inhibition of CYP2C9 (CYP2C9): did not inhibit
- inhibition at 0.4 µM (CYP2C9; human, 0.4 μM): 4.59%
- inhibition at 1 µM (CYP2C9; human, 1 μM): 5.92%
- inhibition at 4 µM (CYP2C9; human, 4 μM): 5.8%
- inhibition at 10 µM (CYP2C9; human, 10 μM): 11.9%
- inhibition at 40 µM (CYP2C9; human, 40 μM): -0.113%
- inhibition at 100 µM (CYP2C9; human, 100 μM): -1.33%
- CLint ([4]; Human hepatocytes): −1.07 gL/min/10^6 cells
- hepatic clearance in humans ([4]; human hepatocyte stability assay): does not undergo hepatic clearance
- % Inhibition of Control Specific Binding [5]: −16%
- % of Control Specific Binding [5]: 117.6%
- % Inhibition of Control Specific Binding (5-HT2B): 5%
- % of Control Specific Binding (5-HT2B): 100.9%
- binding to 5HT2B receptor subtype (5-HT2B): does not bind
- half-life [6]: 4.9 h
- hepatocyte CLint [6]: 4.72 µL/min/1e6 cells
- field excitatory postsynaptic potentials (fEPSPs) ([7]; 10 μM, in vitro electrophysiology): increase
- free (unbound) concentration producing pharmacodynamics activity in the brain ([7]; estimated): approximately 10 μM
